# Source: patent US20110046141A1, “USE OF PDE5 INHIBITORS FOR TREATING CIRCADIAN RHYTHM DISORDERS” (CONSEJO NACIONAL DE INVESTIGACIONES CIENTIFICAS Y TECNICAS …, priority 2007, published 2011)
# How the values were obtained:
# [1] = tested on: Syrian hamsters (Mesocricetus auratus); assay: Light-induced phase delays of activity rhythm, light pulse at CT 14; assay type: in vivo; conditions: FIG. 3B
# Procedure: (§1) (A) Effect on reentrainment of wheel-running activity rhythm following a 6-hr phase delay of the LD cycle. Double-plotted actograms of hamster wheel-running activity showing reentrainment to a 6-hr delay of the LD cycle after the injection of vehicle (top) and sildenafil (3.5 mg/kg, i.p., middle). Injections of either saline or sildenafil were given at ZT 14 on the day of the cycle change (white star). Bottom: mean±S.E.M. (n=4 animals per group) of days needed for reentrainment. (B) Effect of sildenafil on light-induced phase delays following light pulses at CT 14. Representative actograms showing vehicle (top) or sildenafil (middle) injections. Bottom graph: Mean±S.E.M. (n=4 animals per group). Animals. Male adult (3-4 month-old) Syrian hamsters (Mesocricetus auratus) were raised and maintained in a 14:10 h light-dark cycle (L:D, lights on at 0600 h), with food and water ad libitum and room temperature set at 20±2° C. All animal procedures were performed in strict accordance with NIH rules for animal care and maintenance. […] Phase shifts were calculated by fitting a line (by three observers masked to the experimental procedure) through activity onsets 5 days prior and between 5 and 15 days after light exposure and then comparing these two lines on the day of the light pulse. […]
# rats = conditions: i.p.; cited from earlier work
# [2] = tested on: Syrian hamsters (Mesocricetus auratus); assay: Reentrainment of wheel-running activity rhythm after an abrupt 6-h advance of the LD cycle; assay type: in vivo; conditions: for time to resynchronize to the new LD cycle: saline 12±2 days; for decrease in reentrainment time: FIG. 1D
# Procedure: Animals. Male adult (3-4 month-old) Syrian hamsters (Mesocricetus auratus) were raised and maintained in a 14:10 h light-dark cycle (L:D, lights on at 0600 h), with food and water ad libitum and room temperature set at 20±2° C. All animal procedures were performed in strict accordance with NIH rules for animal care and maintenance. Activity rhythm recording. For the resynchronization experiment, animals were transferred to individual cages equipped with a running wheel (17 cm. diameter) and with light intensity averaging 200 lux at cage level. Running-wheel activity was continuously recorded for each animal using a digital system that registers wheel revolutions and stored at 5-min intervals for further analysis. Animals were initially maintained under a 14:10-h is light-dark cycle (LD, lights on at 1900 h) for at least 10 days. Then, hamsters were subjected to an abrupt 6-h advance in the phase of the LD cycle. On the day of the phase shift, intraperitoneal (i.p) injection of sildenafil or vehicle was given at zeitgeber time (ZT) 18, defining ZT 12 as the time of lights off. Time for reentrainment to the new LD cycle was defined as the time it took for each animal to adjust its activity onset with the new cycle (onset at the new time of lights off±15 minutes). Daily onsets of activity were determined. Briefly, activity onset was defined as the 10 min-bin that contained at least 80 wheel revolutions, followed by another bin of at least another 80 wheel revolutions within 40 min. The effect of 1, 3.5 or 10 mg/kg sildenafil—extracted from commercial preparations according to Francis et al. (Int. J. Impotence Res. 2003 15: 369-372) was tested at ZT 14 or 18 in comparison to vehicle administration (sterile saline).
# [3] = tested on: Syrian hamsters (Mesocricetus auratus); assay: Light-induced phase advances of activity rhythm, 15-min 50 lux light pulse at CT 18 in constant dark; assay type: in vivo; conditions: for light-induced phase advance: vehicle 76±23 min
# Procedure: Animals. Male adult (3-4 month-old) Syrian hamsters (Mesocricetus auratus) were raised and maintained in a 14:10 h light-dark cycle (L:D, lights on at 0600 h), with food and water ad libitum and room temperature set at 20±2° C. All animal procedures were performed in strict accordance with NIH rules for animal care and maintenance.
# For light pulse experiments, hamsters were placed in constant dark (DD) conditions, and exposed to a 15-min white light pulse of 50 lux at either circadian time (CT) 14 or 18 (with CT 12 defined as the onset of wheel running activity in DD). Phase shifts were calculated by fitting a line (by three observers masked to the experimental procedure) through activity onsets 5 days prior and between 5 and 15 days after light exposure and then comparing these two lines on the day of the light pulse. […]
# [4] = tested on: cGMP levels in the hamster SCN; assay: Determination of cGMP levels in the SCN by direct enzyme immunoassay; assay type: in vivo; conditions: n=4
# Procedure: Determination of cGMP levels. Cyclic GMP content was determined using a direct enzyme immunoassay kit (Correlate-EIA #900-014, Assay Designs, Ann Arbor, Mich.). Hamsters received an injection of sildenafil (3.5 mg/kg, i.p.) or vehicle (sterile saline solution) at CT 18 and were sacrificed by decapitation 45-90 min later. The SCN were quickly punched out and immediately frozen in liquid nitrogen in order to avoid endogenous cGMP degradation. Tissue was grounded to a fine powder under liquid nitrogen and then homogenized in 0.1 M HCI. The overnight acetylated format of the kit was used. […] In order to precisely compare the effect of sildenafil on cGMP levels, the use of other phosphodiesterase inhibitors, e.g., IBMX, was avoided.
# [5] = tested on: Syrian hamsters (Mesocricetus auratus); assay: Observation of sildenafil-induced penile erections in treated hamsters; assay type: in vivo; conditions: intermediate dose 3.5 mg/kg i.p.
# [6] = tested on: Syrian hamsters (Mesocricetus auratus); assay: Reentrainment of wheel-running activity rhythm after a 6-hr phase delay of the LD cycle; assay type: in vivo; conditions: 3.5 mg/kg i.p. at ZT 14; 6-hr delay; FIG. 3A
# Procedure: as §1, with “maintenance. Activity rhythm recording.” for “maintenance.”, “Running-wheel activity was continuously recorded for each animal using a digital system that registers wheel revolutions and stored at 5-min intervals for further analysis. […] Daily onsets of activity” for “Phase shifts”, “determined.” for “calculated by fitting a line (by three observers masked to the experimental procedure) through activity onsets 5 days prior and between 5 and 15 days after light exposure and then comparing these two lines on the day of the light pulse.”
smiles,measurement,setting,value
"CCCc1nn(C)c2c(=O)[nH]c(-c3cc(S(=O)(=O)N4CCN(C)CC4)ccc3OCC)nc12 [sildenafil, 5-[2-ethoxy-5-(4-methyl-1-piperazinylsulphonyl)phenyl]-1-methyl-3-n-propyl-1,6-dihydro-7H-pyrazolo[4,3-d]pyrimidin-7-one]",effect on light-induced phase delays,[1],did not affect
same,optimal erectogenic dose,rats,5 mg/kg/day
same,time to resynchronize to the new LD cycle,"[2]; 1 mg/kg i.p. at ZT 18, p>0.05 vs. control",9 ± 3 days
same,decrease in reentrainment time,[2]; 1 mg/kg,25%
same,time to resynchronize to the new LD cycle,"[2]; 3.5 mg/kg i.p. at ZT 18 on day of 6-h advance, mean±SD, six animals per group, p<0.05",8 ± 1 days
same,decrease in reentrainment time,[2]; 3.5 mg/kg,33%
same,time to resynchronize to the new LD cycle,"[2]; 10 mg/kg i.p. at ZT 18, p<0.001 vs. control",6 ± 2 days
same,decrease in reentrainment time,[2]; 10 mg/kg,50%
same,light-induced phase advance,"[3]; 3.5 mg/kg i.p. 45 min prior to light pulse at CT 18, mean±SD, p<0.05",150.4 ± 64.8 min
same,post-treatment circadian period,[3]; after light-induced phase advance,did not change
same,light-induced phase advance,"[3]; injection 90 min before light pulse at CT 18, not significantly different from controls",123 ± 27 min
same,"effect on activity rhythms, drug alone",[3]; without light pulse,did not modify activity rhythms
same,SCN cGMP levels,"[4]; 3.5 mg/kg i.p. at CT 18, 45 minutes after injection, saline 0.37±0.20, control 0.29±0.15, mean±SD",0.63±0.08 pmol cGMP/mg protein
same,SCN cGMP levels,"[4]; 90 min after injection, saline 0.26±0.16, no increase vs controls",0.37±0.20 pmol cGMP/mg protein
same,sildenafil-induced penile erections,[5],did not manifest the effects of sildenafil-induced penile erections
same,effect on reentrainment rates after a delay in the LD cycle,[6],did not affect
